Laboratory results: publication PMC8315109 (Science signaling, 2021)

Columns and labels:
[1] = target: T1, Jupiter microtubule-associated homolog 2 (JPT2) (Homo sapiens, UniProt Q9H910); assay: […]-NAADP radioligand filtration binding, displacement by HPLC-purified NADP
T1 sequence (Q9H910 1-218 isoform Q9H910-3): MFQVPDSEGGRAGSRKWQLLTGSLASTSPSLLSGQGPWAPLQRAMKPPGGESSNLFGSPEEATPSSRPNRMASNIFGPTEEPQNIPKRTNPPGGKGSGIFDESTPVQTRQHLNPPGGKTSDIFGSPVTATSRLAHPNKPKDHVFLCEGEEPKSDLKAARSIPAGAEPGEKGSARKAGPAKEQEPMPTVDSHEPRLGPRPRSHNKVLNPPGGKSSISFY

[2] = target: T1, Jupiter microtubule-associated homolog 2 (JPT2); assay: […]-NAADP radioligand filtration binding, displacement by unlabeled NAADP

Row | IC50 [1] [nM] | IC50 [2] [nM] | Compound
1 | 334 ± 76 |  | NC(=O)c1ccc[n+]([C@@H]2O[C@H](COP(=O)(O)OP(=O)(O)OC[C@H]3O[C@@H](n4cnc5c(N)ncnc54)[C@H](OP(=O)(O)O)[C@@H]3O)[C@@H](O)[C@H]2O)c1 [NADP]
2 |  | 20 ± 3.6 | Nc1ncnc2c1ncn2[C@@H]1O[C@H](COP(=O)(O)OP(=O)(O)OC[C@H]2O[C@@H]([n+]3cccc(C(=O)O)c3)[C@H](O)[C@@H]2O)[C@@H](O)[C@H]1OP(=O)(O)O [NAADP]
